Test results taken from ChEMBL document CHEMBL4118163, “Identification and preliminary structure-activity relationship studies of novel pyridyl sulfonamides as potential Chagas disease therapeutic agents” (Bioorg Med Chem Lett, 2018).

Key:
[1] = tested on: Trypanosoma cruzi; assay: Antitrypanosomal activity against Trypanosoma cruzi Tulahuen amastigotes infected in mouse L929 cells assessed as reduction in infection level at 10 uM after 96 hrs by beta galactosidase reporter assay relative to control; format: functional; conditions: L929, 96 h
[2] = Cytotoxicity against mouse L929 cells assessed as reduction in cell viability after 96 hrs by alamar blue assay; format: cell-based; conditions: read-out: LC50
[3] = Cytotoxicity against Swiss Webster mouse cardiomyocyte assessed as reduction in cell viability after 24 hrs by PrestoBlue assay; set-up: species or system Cardiac Muscle Cell; conditions: cardiomyocytes, read-out: LC50
[4] = tested on: Trypanosoma cruzi; assay: Antitrypanosomal activity against bloodstream trypomastigote stage of Trypanosoma cruzi Y infected in Swiss Webster mouse cardiac cells after 24 hrs; format: functional, organism-based
[5] = tested on: Trypanosoma cruzi; assay: Antitrypanosomal activity against Trypanosoma cruzi Tulahuen amastigotes infected in mouse L929 cells after 96 hrs by beta galactosidase reporter assay; format: functional, organism-based; conditions: L929, 96 h
[6] = Selectivity index, ratio of LC50 for mouse L929 cells to EC50 for Trypanosoma cruzi Tulahuen amastigotes; format: toxicity; conditions: read-out: Selectivity Index
[7] = tested on: Trypanosoma cruzi; assay: Antitrypanosomal activity against Trypanosoma cruzi Silvio X10/7 intracellular forms; format: functional, organism-based
[8] = tested on: Vero; assay: Cytotoxic activity against African green monkey Vero cells; format: cell-based; conditions: Chlorocebus sabaeus
[9] = Selectivity index, ratio of LC50 for Swiss Webster mouse cardiac cells to EC50 for bloodstream trypomastigote stage of Trypanosoma cruzi Y; format: toxicity; conditions: read-out: Selectivity Index

| SMILES | inhibition at 10 µM [1] [%] | CC50 at 96 h [2] [µM] | CC50 at 24 h [3] [µM] | EC50 [4] [µM] | EC50 [5] [µM] | selectivity ratio [6] | EC50 [7] [µM] | EC50 [8] [µM] | selectivity ratio [9] |
| --- | --- | --- | --- | --- | --- | --- | --- | --- | --- |
| COc1ccc(S(=O)(=O)NCc2ccccn2)c(C)c1C | 7.2 | > 200 |  |  |  |  |  |  |  |
| CCOc1ccc(S(=O)(=O)NCc2cccnc2)c2ccccc12 | 1.1 | > 200 |  |  |  |  |  |  |  |
| CCOc1ccc(S(=O)(=O)Nc2ccncc2)c(C)c1C | 3.6 | > 200 |  |  |  |  |  |  |  |
| CCOc1ccc(S(=O)(=O)NCc2ccccn2)c(C)c1C | 3.6 | > 200 |  |  |  |  |  |  |  |
| COc1ccc(S(=O)(=O)NCc2cccnc2)c2ccccc12 | 28 | > 200 |  |  |  |  |  |  |  |
| COc1c(C)cc(S(=O)(=O)Nc2cccnc2)c(C)c1C | 2.1 | > 200 |  |  |  |  |  |  |  |
| CCCOc1cc(C)c(S(=O)(=O)Nc2cccnc2)cc1C | 78 | > 200 | > 100 | > 50 | 13.2 | > 15 |  |  |  |
| CCOc1ccc(S(=O)(=O)Nc2cccnc2)cc1CC | 3 | > 200 |  |  |  |  |  |  |  |
| COc1ccc(S(=O)(=O)Nc2ccc(Cc3ccncc3)cc2)c2ccccc12 | 0 | > 200 |  |  |  |  |  |  |  |
| COc1ccc2cc(S(=O)(=O)Nc3cccnc3)ccc2c1 | 41.1 | > 200 | > 100 | > 50 | 5.44 | > 36 |  |  |  |
| CCOc1ccc(S(=O)(=O)Nc2cccnc2)c(C)c1C | 62 | > 200 | > 100 | > 50 | 14.8 | > 13.5 |  |  |  |
| CCOc1ccc(S(=O)(=O)Nc2cccnc2)cc1C(C)(C)C | 1.9 | > 200 |  |  |  |  |  |  |  |
| CCOc1ccc(S(=O)(=O)NCc2ccncc2)c(C)c1C | 65 | > 200 | > 100 | > 50 | 8.62 | > 23 |  |  |  |
| COc1cc(C)c(S(=O)(=O)Nc2cccnc2)cc1C(C)C | 26.7 | > 200 |  |  |  |  |  |  |  |
| CCOc1ccc(S(=O)(=O)Nc2cccnc2)c2ccccc12 |  | > 400 |  |  | > 25 |  | 5.5 | 50 |  |
| CCOc1ccc(S(=O)(=O)Nc2ccncc2)c2ccccc12 | 0.1 | > 200 |  |  |  |  |  |  |  |
| O=C(Cn1ccnc1[N+](=O)[O-])NCc1ccccc1 [BENZNIDAZOLE] | 89.3 | > 400 | > 1000 | 11.2 | 3.51 | > 114 |  |  | > 89 |
| CC1CS(=O)(=O)CCN1/N=C/c1ccc([N+](=O)[O-])o1 (centres undefined) [NIFURTIMOX] |  |  |  |  |  |  | 0.9 | 50 |  |
